Source: publication PMC12276035, “Novel Para‐Phenylenediamine‐Based Derivatives as Receptor Tyrosine Kinase‐like Orphan Receptor 1 (ROR1) Inhibitors: An In Vitro Preliminary Characterization” (Chemmedchem, 2025)

Key:
[1] = tested on: ROR1 pathways in JeKo‐1 cells; experiment: Western blotting of ROR1 pathway; type: cell-based, human; conditions: western blot
Source text: This time‐dependent reduction in P‐ROR1 is particularly significant, as it represents the upstream event that drives the observed proapoptotic downstream effects. […] Indeed, activation of ROR1 initiates the nonclassical Wnt (PI3K/AKT/mTOR) pathway and upregulates the phosphorylation level of AKT, which contributes to the survival and proliferation of cancer cells.^[ [25] ^]
Figure 6 Molecular effects of 17 on ROR1 pathways in JeKo‐1 cells. For each western blotting analysis, three independent experiments were performed, and the SD is expressed by error bars. The relative fold change versus untreated cells, set as 1, is shown in the graph. *, **, and *** denote respectively p < 0.05, p < 0.01, and p < 0.001 versus Ctrl.
JeKo‐1 cells (2.5 × 10^6 cells/well) were seeded in a T‐75 flask, treated with compound 17 (10 μM) for different times (4, 8, and 24 h). After treatments, cells were washed twice with PBS and detached with a scraper, centrifuged at 655 g × 10 min at 4 °C. Full proteins were extracted by lysis buffer (20 mM Tris‐HCl pH 7.5, 150 mM NaCl, 1 mM Na2EDTA, 1 mM EGTA, 2% NP‐40, 1% sodium deoxycholate, 1× protease and phosphatase inhibitor cocktail) for 30 min. Then, cell lysates were centrifuged at 4850 g for 20 min at 4 °C. 60 μg of total proteins were run on 8% SDS‐PAGE and transferred to nitrocellulose membranes using a minigel apparatus (Bio‐Rad Laboratories, Hercules, CA, USA). Blots were blocked in phosphate‐buffered saline, containing Tween‐20 0.1% and 5% BSA for 1 h at room temperature and incubated overnight with specific primary antibodies at 4 °C with slight agitation. α‐Tubulin was used as the loading control. […] Antigen‐antibody complexes were detected by enhanced chemiluminescence (ECL kit, Amersham, Germany). […]

ROR1 kinase domain = biological target: T1, ROR1 kinase domain (Homo sapiens, UniProt Q01973); experiment: SPR assay on ROR1 kinase domain; type: binding; conditions: SPR, KD ± SD, 0 to 100 μM, 25 °C; n.b. = no binding; read-out: Kinase domain KD
T1 construct: recombinant human ROR1 protein (aa 453‐783, His&GST Tag); His; GST; purchased Elabscience
T1 sequence (Q01973 453-783): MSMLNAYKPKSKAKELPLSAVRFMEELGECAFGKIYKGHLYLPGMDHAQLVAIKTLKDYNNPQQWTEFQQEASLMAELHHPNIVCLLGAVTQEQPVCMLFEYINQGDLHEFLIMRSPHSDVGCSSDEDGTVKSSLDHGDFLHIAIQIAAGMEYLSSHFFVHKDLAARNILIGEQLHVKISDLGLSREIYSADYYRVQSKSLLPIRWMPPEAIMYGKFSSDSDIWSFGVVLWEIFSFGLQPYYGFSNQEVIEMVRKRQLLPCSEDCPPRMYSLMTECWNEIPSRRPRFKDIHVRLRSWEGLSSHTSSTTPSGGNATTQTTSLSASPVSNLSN
Description: We performed molecular docking experiments to explore the binding mode of novel derivatives using the crystallographic structure of the protein co‐complexed with ponatinib, a known inhibitor of ROR1 (PDB code: 6TU9).^[ [30] ^] […] To evaluate the affinity of the synthesized molecules (10, 13, 14, 17–21, 26–29) for the protein counterpart, SPR assay was performed against kinase domain ROR1. Protein immobilization was achieved using the amide coupling method, and the molecules were tested at 10 different concentrations, ranging from 0 to 100 μM. Ponatinib was used as a positive control^[ [30] ^] (Table 1 ).
SPR spectroscopy analyses were conducted to evaluate the binding affinity of the synthesized compounds against ROR1 receptor using a Biacore T200 optical biosensor equipped with research‐grade CM5 sensor chips (Cytiva, Marlborough, USA). ROR1 kinase domain was immobilized on the CM5 sensor chip surface following standard amine‐coupling protocols. Specifically, kinasic domain was immobilized at pH 4.5 10 mM CH3COONa using a flow rate of 10 μL min^−1, achieving a density of around 20 kRU.
For the experiments, surfaces of ROR1, along with an unmodified reference surface, were prepared for simultaneous analyses. […] The compounds were injected in a series of concentrations (1:2 dilution, 10 different concentrations), spanning from 0 to 100 μM. The concentration series were prepared in 96‐well plates. SPR experiments were conducted at 25 °C, with a flow rate of 20 μL min^−1, allowing for 90 s of association monitoring and 400 s of dissociation monitoring. Changes in mass, reflective of the binding response, were recorded as resonance units (RU). K D values were determined using the Biaevaluation software performing a global fit of the double‐referenced association and dissociation data to a 1:1 interaction model^[ [43] ^] (see Figure S38, Supporting Information).

[2] = Liver microsomal stability; type: in vitro ADME, mouse
Description: To evaluate the metabolic stability of our hit compound and assess its drug‐likeness, we investigated the microsomal stability of 17 by incubating it with mouse liver microsomes. We monitored the loss of the compound over time under CYP‐mediated metabolic pathways (Figure 7A). The natural logarithm of the percentage remaining of the compound, calculated by comparing the concentration at each time point with the t0 sample, was plotted against time, yielding a linear regression (R ^2 = 0.98).
The liver microsomal stability assay of compound 17 was conducted as previously described.^[ [47] ^] Briefly, mouse (CD‐1) liver microsomes (Thermo Fisher Scientific, Bremen, Germany) were used, and the reaction was initiated by the addition of NADPH. The incubation was carried out 37 °C for 15, 30, 45, and 60 min in a Thermomixer comfort (Eppendorf, Hamburg, Germany). The reaction was stopped by the addition of ice‐cold methanol containing IS. Finally, the samples were centrifuged, and the supernatants were injected into the LC‐MS. […] All experiments were performed in triplicate, and results were expressed as the in vitro microsomal half‐life (t 1/2), calculated using the equation t 1/2 = 0.693/b, where b is the slope of the linear regression obtained by plotting the natural logarithm of the remaining parent compound fraction against incubation time.

Kd (ROR1 kinase domain): 12.1 ± 2.68 µM
degradation ([2]; after 60 min with mouse microsomes): ≈ 20%
half-life ([2]; mouse (CD‐1) liver microsomes, NADPH, 37 °C): ~3.3 h
Compound: O=C(NCc1ccc(-c2ccccc2)cc1)Nc1ccc(NCC2CCNCC2)cc1C(F)(F)F [Compound 17]
AKT phosphorylation ([1]; JeKo‐1, 10 μM, 4, 8 and 24 h): significant decrease
ROR1 phosphorylation ([1]; JeKo‐1, 10 μM, 4, 8 and 24 h): marked reduction
total ROR1 protein levels ([1]; JeKo‐1, 10 μM, 24 h): increase
